From paper PMC12196494, “Application of Solvent Evaporation to Generate Supersaturated Lipid-Based Formulations: Investigation of Drug Load and Formulation Quality” (Pharmaceutics, 2025)
In brackets after ≈: the same amount, converted by molar mass. Where two headings read alike, the source gives them in different places.

Key:
[1] = cited from earlier work; for Drug load, % of the equilibrium solubility at 37 °C: supersaturated type I and type II LBFs
[2] = for Stability: celecoxib in LCM
[3] = MCT and LCM formulations, polarized light, Figure 1A-D
Text: For selected samples where precipitation was visible, a few droplets (enough volume to cover the area of a quartz microscope slide covered by a cover slip) were taken from the middle of the vial using a plastic pipette, and the crystallinity was confirmed by using a ZEISS Axio Vert.A1 microscope with polarized light function (Jena, Germany).

[4] = cited from earlier work
[5] = Solubility studies in lipid-based formulations (MCT, LCM) at different temperatures; format: physicochemical; conditions: for solubility: oil or lipid, thermodynamic from solid, n = 3, mean ± SD
Protocol: In the case that the added compound was dissolved during incubation, more compound was added. After incubation, the samples were centrifuged in an Eppendorf centrifuge 5430R (Hamburg, Germany) for 30 min at 17,500 rpm (=30,130 rcf) at either 20 °C (samples incubated at ambient temperature), 37 °C (samples incubated at 37 °C), or 40 °C (samples incubated at 60 °C). The supernatant was diluted and further analyzed by UPLC-UV, as described below.
The supernatants obtained from the solubility studies were diluted 1:50 with tetrahydrofuran, which was further diluted 1:100 with acetonitrile. […] This final dilution was analyzed by using an Acquity (UPLC™) H-class system composed of a quaternity solvent manager, a photodiode array (PDA) detector, a sample manager, and the Empower® software (version 3.0) for data processing. For the chromatographic analysis, a reversed-phase Waters Acquity BEH C18 with a 50 mm × 2.1 mm column (particle size 1.7 μm) including a precolumn (Waters Acquity BEH C18, 5 mm * 2.1 mm, particle size 1.7 μm) (Waters, Milford, CT, USA) was used.
The statistical analysis was performed using GraphPad Prism, Version 9.5.1.

mice = tested on: mice; parameters: method as in PMID 33387565; conditions: doses of 1000–4000 ppm DCM; cited from earlier work
hamsters = tested on: hamsters; parameters: method as in PMID 33387565; conditions: doses of 1000–4000 ppm DCM; cited from earlier work
rats = tested on: rats; parameters: method as in PMID 33387565; conditions: doses of 1000–4000 ppm DCM; cited from earlier work

Structure (SMILES): Cc1ccc(-c2cc(C(F)(F)F)nn2-c2ccc(S(N)(=O)=O)cc2)cc1 [Celecoxib, celecoxib]
- Time to precipitation ([1]; heat-induced supersaturated type I and type II LBFs, in most cases): ≤ 14 days
- Drug load, % of the equilibrium solubility at 37 °C [1]: ≤ 136%
- Precipitation ([2]; celecoxib content of 371% or higher, both vehicles, stored at ambient): visible precipitation already within a timeframe of a few days
- Stability ([2]; DCM 1 + 2, stored at ambient): 7 to 14 days
- Stability ([2]; DCM 1 + 4, stored at ambient, n = 1): 7 to 14 days
- Drug load relative to the solubility at ambient temperature ([2]; solvent-based approach, DCM evaporation): up to 475%
- Solid state of the precipitate from the formulations [3]: crystalline
- log P [4]: 4.3
- Ratio of solubility 60 °C/Ambient temperature ([5]; LCM): 2.38 ± 0.04
- Ratio of solubility 60 °C/Ambient temperature ([5]; MCT): 1.85 ± 0.03
- solubility ([5]; long-chain monoglyceride (Maisine CC), Maisine CC, 37 °C, read-out: Solubility LCM): 15.57 ± 0.09 mg/mL (≈ 40.8 mM)
- solubility ([5]; long-chain monoglyceride (Maisine CC), Maisine CC, 60 °C, read-out: Solubility LCM): 24.6 ± 0.36 mg/mL (≈ 64.4 mM)
- solubility ([5]; long-chain monoglyceride (Maisine CC), Maisine CC, ambient temperature (~21 °C), read-out: Solubility LCM): 10.34 ± 0.08 mg/mL (≈ 27.1 mM)
- solubility ([5]; medium-chain triglyceride (Labrafac Lipophile WL1349), medium-chain triglyceride, 37 °C, read-out: Solubility MCT): 11.3 ± 0.05 mg/mL (≈ 29.6 mM)
- solubility ([5]; medium-chain triglyceride (Labrafac Lipophile WL1349), medium-chain triglyceride, 60 °C, read-out: Solubility MCT): 14.3 ± 0.25 mg/mL (≈ 37.5 mM)
- solubility ([5]; medium-chain triglyceride (Labrafac Lipophile WL1349), medium-chain triglyceride, ambient temperature (~21 °C), read-out: Solubility MCT): 7.72 ± 0.16 mg/mL (≈ 20.2 mM)
- Supersaturation ratio between 60 °C and ambient temperature ([5]; range over MCT and LCM): 1.85–2.38
- Drug load relative to the solubility at ambient temperature ([5]; supersaturation induced by heat (60 °C)): 238%

Structure (SMILES): ClCCl [DCM, dichloromethane]
- Risk for malignant tumors (mice): increased risk for malignant tumors
- Risk for malignant tumors (hamsters): not in rats and hamsters
- Risk for malignant tumors (rats): not in rats and hamsters

Structure (SMILES): CC(C)OC(=O)C(C)(C)Oc1ccc(C(=O)c2ccc(Cl)cc2)cc1 [Fenofibrate, fenofibrate]
- Time of storage to crystallization ([1]; heat-induced supersaturated LBF of MCT and phospholipids, prepared at 65 °C, stored at 20–23 °C): nine weeks

Structure (SMILES): C(=C\c1ccccc1)/CN1CCN(C(c2ccccc2)c2ccccc2)CC1 [cinnarizine]
- Drug load, % of the equilibrium solubility at 37 °C [1]: up to 138%

Structure (SMILES): CC(C)Cc1ccc(C(C)C(=O)O)cc1 (stereo not drawn) [ibuprofen]
- Time stable ([1]; some ibuprofen-loaded solid LBFs): up to 9 months
